One series concerns MHC II. The note with it: cited from earlier work.
The target in series [1] is T1, HLA-DR1 (DR1) (DRA*0101/DRB1*010101) (Homo sapiens, UniProt P01903+P01911, A100R/D57E/F55L/F60I/F76Y/I96L/L162R/M171V/P40L/Q125E/R42F/V115G/Y59C). Put plainly: MHC II stabilization assay. The note with it: 1 μM DR1-W1A with 1 μM DM, or 1 μM DM and 50 μM W1A, 37 °C 1 hour, pH 5.5, Superdex200; at least four independent experiments.
Series [2] deals with T1, HLA-DR1 (DR1) (DRA*0101/DRB1*010101). Nature of the series: Numerical modeling. It is filed as binding. The note with it: best fit value, Scheme V; DM-MHC resolves into inactive MHC II in the absence of peptides; kept the same for HA and CLIP; 0.4 μM DR1, 0.4 μM DM.
Series [3] in a line: Peptide occupancy, quantitative amino acid analysis of acid-eluted material. The conditions noted are these: control DM sample.
Series [4] concerns the target DM-MHC II intermediate (complex of HLA-DM with active peptide-free DR1) (human) (UniProt P28067). Nature of the series: fluorescence polarisation.

No end group written: not given here. Alexa 488 = Alexa-488 fluorophore (from tetrafluorophenyl ester) on the Lys side-chain amine

For the molecule Ac-GSDARFLRGYHQYA [W1A], the “susceptibility to DM-mediated peptide release” value in the series on MHC II (DR1-bound) was “extremely susceptible to DM-mediated peptide release”. Besides, the “inhibition of aggregation of DR1 loaded with weakly binding peptide W1A” value in series [1] is given as “Excess of peptides but not DM could inhibit the aggregation of MHC II”.

In series [2], Ac-VSKMRMATPLLMQ [CLIP] returned a k5 of 0.36 min⁻¹. The “intrinsic and DM-catalyzed dissociation half-life” value in the series with MHC II (as previously reported) was ~ 5 hours.

On to “DM: soluble extracellular domains of recombinant DM expressed in Drosophila S2 cells”, for which, in series [3], the “amino acid content of acid-eluted material” value is 3.46 nmol amino acid per 50 nmol protein.

B1: Alexa488-labeled CLIP peptide (Ac-…) (peptide)
peptide: Ac-VSK(Alexa 488)MRMATPLLMQ
In the case of B1, in series [4], the k6 (another combination that gives the same fit) worked out at 47500 M⁻¹ s⁻¹, the k6 (peptide binds the intermediate DM-MHC to give DM-MHCpep') was determined as 86800 M⁻¹ s⁻¹ and the k-6 (peptide leaves DM-MHCpep') worked out at 0.022 min⁻¹.

The record behind these values is publication PMC4490944 (Journal of immunology (Baltimore, Md. : 1950), 2015).
